# Source: patent publication US20110281726A1, “GLEDITSIA AMORPHOIDES SEEDLESS POD EXTRACT AND ITS USE AS AN AGRICULTURAL ADJUVANT” (IDEASUPPLY.COM ARGENTINA S.A., priority 2005, published 2011)
# Key:
# Assay type in all cases: in vivo
# [1] = system: alfalfa (Medicago Sativa L.); assay: Influence of CU co-adjuvant on the activity of defoliant Paraquat in alfalfa; details: Paraquat 1 l/ha, CU 0.25% v/v, emulsion oil 1% v/v, five days after treatment, day-night temperatures 30/21° C.
# Protocol: Another application with agrochemicals was conducted by assessing the influence of the “CU” co-adjuvant of the invention on the activity of defoliant “Paraquat” in alfalfa (Medicago Sativa L.)
# For such purpose, the effect of the addition of the surfactant Coronillo Ultra (CU) at 0.25% v/v and emulsion oil at 1% v/v to defoliant Paraquat at a 1 l/ha concentration, in conditions of high and low temperatures during both the day and at night on alfalfa was assessed.
# [2] = system: leafmining moth (Phyllocnistis Citrella Stainton); assay: Control of leafmining moth: injection into tunnels and application on foliar surface
# From the text: Efficacy of “avemectin” and the CU co-adjuvant of the invention to control leafmining moth (Phyllocnistis Citrella Stainton.)
# Two assays were designed in order to assess the effect of two concentrations of the Coronillo Ultra surfactant and combinations of both products to control leafmining moth in citrus (Phyllocnistis Citrella Stainton.)
# One of the assays was geared to testing the action of the direct contact of the products, both pure and in mixtures, with the larvae of the second and third stages by injecting the solution into the tunnels. The second assay aimed at assessing the effect of its application on the foliar surface affected with tunnels. In both assays, methylene blue dye was used as tracer to assess the flow of the solution inside the tunnel and the larvae.
# In the treatments applied over the foliar surface, effects were noticed only when the active penetrated the epidermis and came into contact with the insect inside the tunnel.
# [3] = system: leafmining moth (Phyllocnistis Citrella Stainton); assay: Control of leafmining moth: field test in a five-year vegetable garden
# Protocol: Finally, the above treatments were tested on the field, in a five-year vegetable garden.
Compound,defoliation [1] [%],effect of avemectin applied over the foliar surface ([2]; high concentrations),effect of avemectin when injected ([2]; low doses),control percentage after 14 days [3]
C[n+]1ccc(-c2cc[n+](C)cc2)cc1 [Paraquat],17,,,
avemectin,,effective,same effect,low control percentage
